The values below come from US9920010B2, “CXCR7 receptor modulators” (IDORSIA PHARMACEUTICALS LTD, priority 2013, dated 2018).

pEC50: −log10 of the molar value.

T1 sequence (P25106 whole entry): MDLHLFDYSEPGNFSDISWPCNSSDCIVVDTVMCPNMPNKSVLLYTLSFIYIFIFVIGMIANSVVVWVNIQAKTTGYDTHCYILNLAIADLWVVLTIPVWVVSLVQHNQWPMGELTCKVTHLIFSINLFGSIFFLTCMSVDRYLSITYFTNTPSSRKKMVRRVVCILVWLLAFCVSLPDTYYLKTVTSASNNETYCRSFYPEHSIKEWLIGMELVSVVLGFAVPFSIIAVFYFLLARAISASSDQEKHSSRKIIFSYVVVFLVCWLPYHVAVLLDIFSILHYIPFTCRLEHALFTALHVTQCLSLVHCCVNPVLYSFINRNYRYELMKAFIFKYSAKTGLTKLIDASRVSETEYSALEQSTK
T1 sequence (P32121 whole entry partner): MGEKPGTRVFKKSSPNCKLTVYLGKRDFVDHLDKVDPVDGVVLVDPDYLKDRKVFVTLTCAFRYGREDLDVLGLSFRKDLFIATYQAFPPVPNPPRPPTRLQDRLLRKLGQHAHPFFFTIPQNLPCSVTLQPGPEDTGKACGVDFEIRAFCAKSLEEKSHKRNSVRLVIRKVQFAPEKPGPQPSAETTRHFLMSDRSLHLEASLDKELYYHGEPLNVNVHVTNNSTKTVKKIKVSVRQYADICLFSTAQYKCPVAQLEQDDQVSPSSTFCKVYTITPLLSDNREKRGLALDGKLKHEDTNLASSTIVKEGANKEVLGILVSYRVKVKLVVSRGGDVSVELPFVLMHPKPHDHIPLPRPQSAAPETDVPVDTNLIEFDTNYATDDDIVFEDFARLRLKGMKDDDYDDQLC

The assay addresses T1, CXCR7 (Homo sapiens, UniProt P25106).
T1 construct: host or cells: CHO-K1 (PathHunter CHO-K1 CXCR7 b-arrestin cell line, stably transfected)
Briefly: PathHunter CHO-K1 CXCR7 b-arrestin recruitment assay (CXCR7 agonistic activity). Format: cell-based. As to conditions: PathHunter CHO-K1 CXCR7 b-arrestin cell line. The method in brief: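 Stable CHO-K1 line with C-terminally ProLink-tagged CXCR7 and β-arrestin 2–EA fusion; β-arrestin recruitment restores β-gal activity, read by chemiluminescence after 1 h RT detection. Cells seeded 24 h, starved in OPTIMEM 3–4 h, exposed to compounds 90 min at 37 °C in HBSS/HEPES/BSA. Geometric-mean EC50 from repeated measurements.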
Take `CN(C)CCN(Cc1ccccc1C(F)(F)F)C(=O)CNc1cccc2c1CN(CC(F)(F)F)CC2` [Example 558, N-(2-Dimethylamino-ethyl)-2-[2-(2,2,2-trifluoro-ethyl)-1,2,3,4-tetrahydro-isoquinolin-8-ylamino]-N-(2-trifluoromethyl-benzyl)-acetamide]: the pEC50 is 7.23.
Then `COCCN1CCc2c(cccc2NCC(=O)N(CCN2CCC(F)(F)CC2)Cc2ncccc2Cl)C1` [Example 305, N-(3-Chloro-pyridin-2-ylmethyl)-N-[2-(4,4-difluoro-piperidin-1-yl)-ethyl]-2-[2-(2-methoxy-ethyl)-1,2,3,4-tetrahydro-isoquinolin-5-ylamino]-acetamide], with 6.64; and `O=C(Cc1cccc2c1CCN(CC1CC1)C2)N(CCN1CCCC1)Cc1ccccc1C(F)(F)F` [Example 7, 2-(2-Cyclopropylmethyl-1,2,3,4-tetrahydro-isoquinolin-5-yl)-N-(2-pyrrolidin-1-yl-ethyl)-N-(2-trifluoromethyl-benzyl)-acetamide], with 7.49.
Then `CNCCN(Cc1ccccc1C(F)(F)F)C(=O)CNc1cccc2c1CCN(C(=O)CC(C)C)C2` [compound 391, N-(2-Methylamino-ethyl)-2-[2-(3-methyl-butyryl)-1,2,3,4-tetrahydro-isoquinolin-5-ylamino]-N-(2-trifluoromethyl-benzyl)-acetamide], with 7.31; and `CN(C)CCN(Cc1ccccc1)C(=O)CNc1cccc2c1CCN(Cc1ccccc1)C2` [compound 123], with 6.92; and `CCN1CCc2c(CCC(=O)N(CCN(C)C)Cc3ccccc3Cl)cccc2C1` [compound 155, N-(2-Chloro-benzyl)-N-(2-dimethylamino-ethyl)-3-(2-ethyl-1,2,3,4-tetrahydro-isoquinolin-5-yl)-propionamide], with 7.77.
Turning to `CCN1CCc2c(cccc2NCC(=O)N(Cc2ccccc2C(F)(F)F)C2CCN(C)CC2)C1` [compound 137, 2-(2-Ethyl-1,2,3,4-tetrahydro-isoquinolin-5-ylamino)-N-(1-methyl-piperidin-4-yl)-N-(2-trifluoromethyl-benzyl)-acetamide], the pEC50 was 7.35.
Then `CC(C)CCN(Cc1ccccc1)C(=O)COc1cccc2c1CCN(CC1CC1)C2` [compound 163, N-Benzyl-2-(2-cyclopropylmethyl-1,2,3,4-tetrahydro-isoquinolin-5-yloxy)-N-(3-methyl-butyl)-acetamide], with 7.77.
Under `O=C(CNc1cccc2c1CCN(CC1CC1)C2)N(CCN1CCCC1)Cc1ccccc1` [Example 41, N-Benzyl-2-(2-cyclopropylmethyl-1,2,3,4-tetrahydro-isoquinolin-5-ylamino)-N-(2-pyrrolidin-1-yl-ethyl)-acetamide] stands 8.30; under `O=C(CNc1cccc2c1CCN(CC1CC1)C2)N(CCN1CCCC1)Cc1ccccc1Cl` [Example 43, N-(2-Chloro-benzyl)-2-(2-cyclopropylmethyl-1,2,3,4-tetrahydro-isoquinolin-5-ylamino)-N-(2-pyrrolidin-1-yl-ethyl)-acetamide], 8.70.
Under `CC(C)CCN(Cc1ccccc1)C(=O)CNc1cccc2c1CCN(C(=O)OC(C)(C)C)C2` [Example 9, 5-({[Benzyl-(3-methyl-butyl)-carbamoyl]-methyl}-amino)-3,4-dihydro-1H-isoquinoline-2-carboxylic acid tert-butyl ester] stands 6.35; under `CN(CCN(Cc1ccccc1C(F)(F)F)C(=O)CNc1cccc2c1CCN(CC1CC1)C2)C1CCOC1` (racemic) [compound 448], 8.70.
With `CCC(=O)N1CCc2c(cccc2NCC(=O)N(CCN(C)C)Cc2ccccc2Cl)C1` [Example 20, N-(2-Chloro-benzyl)-N-(2-dimethylamino-ethyl)-2-(2-propionyl-1,2,3,4-tetrahydro-isoquinolin-5-ylamino)-acetamide], the pEC50 is 7.96.
Then `CCN1CCc2cccc(NCC(=O)N(CCN3CCCC3=O)Cc3ccccc3C(F)(F)F)c2C1` [compound 517], with 6.52.
With `CCN1Cc2c(NCC(=O)N(CCN(C)C)Cc3ccccc3C(F)(F)F)cccc2C(C)(C)C1` [compound 198], the negative logarithm of the EC50 (pEC50) is 6.41.
Under `C/C(=C\c1cccc2c1CCN(C(=O)OC(C)(C)C)C2)C(=O)N(CCN(C)C)Cc1ccccc1C(F)(F)F` [Example 97, 5-{(E)-2-[(2-Dimethylamino-ethyl)-(2-trifluoromethyl-benzyl)-carbamoyl]-propenyl}-3,4-dihydro-1H-isoquinoline-2-carboxylic acid tert-butyl ester] stands 6.44; under `CC(C)C(=O)N1CCc2c(cccc2OCC(=O)N(CCN(C)C)Cc2ccccc2)C1` [compound 170], 7.13; under `CN(C)CCN(Cc1ccccc1OC(F)(F)F)C(=O)CNc1cccc2c1CN(CC1CC1)CC2` [compound 472, 2-(2-Cyclopropylmethyl-1,2,3,4-tetrahydro-isoquinolin-8-ylamino)-N-(2-dimethylamino-ethyl)-N-(2-trifluoromethoxy-benzyl)-acetamide], 7.68.
Then `CCN1CCc2cccc(NCC(=O)N(CCN(C)C(=O)OC(C)(C)C)Cc3ccccc3C(F)(F)F)c2C1` [compound 515], with 6.42.
Then `CC(C)(O)CN(Cc1ncccc1Br)C(=O)CNc1cccc2c1CN(CC1CC1)CC2` [compound 488], with 7.04.
Regarding `Cc1ccc(CN(CCN(C)C)C(=O)CNc2cccc3c2CCN(CC2CC2)C3)nc1` [Example 258, 2-(2-Cyclopropylmethyl-1,2,3,4-tetrahydro-isoquinolin-5-ylamino)-N-(2-dimethylamino-ethyl)-N-(5-methyl-pyridin-2-ylmethyl)-acetamide], the negative-log EC50 (pEC50) was 7.57.
Then `CN(C)CCN(Cc1ccccc1C(F)(F)F)C(=O)CNc1cccc2c1CN(CC(C)(C)C)CC2` [compound 563, N-(2-Dimethylamino-ethyl)-2-[2-(2,2-dimethyl-propyl)-1,2,3,4-tetrahydro-isoquinolin-8-ylamino]-N-(2-trifluoromethyl-benzyl)-acetamide], with 7.59.
Under `O=C(CNc1cccc2c1CN(CC1CC1)CC2)N(CCN1CC(F)(F)C1)Cc1ccccc1C(F)(F)F` [compound 484] stands 7.10.
Then `COCCN1CCc2c(/C=C/C(=O)N(CCC(C)(C)O)Cc3ccccc3C(F)(F)F)cccc2C1` [Example 325, (E)-N-(3-Hydroxy-3-methyl-butyl)-3-[2-(2-methoxy-ethyl)-1,2,3,4-tetrahydro-isoquinolin-5-yl]-N-(2-trifluoromethyl-benzyl)-acrylamide], with 6.48; and `CNCCN(Cc1ccccc1Cl)C(=O)CNc1cccc2c1CCN(CC1CC1)C2` [compound 446, N-(2-Chloro-benzyl)-2-(2-cyclopropylmethyl-1,2,3,4-tetrahydro-isoquinolin-5-ylamino)-N-(2-methylamino-ethyl)-acetamide], with 8.40.
The compound `CN(C)CCN(Cc1ccccc1Cl)C(=O)/C=C/c1cccc2c1CCN(CC1CC1)C2` [compound 146, (E)-N-(2-Chloro-benzyl)-3-(2-cyclopropylmethyl-1,2,3,4-tetrahydro-isoquinolin-5-yl)-N-(2-dimethylamino-ethyl)-acrylamide] showed a pEC50 of 8.70. This pEC50 is 0.30 log units higher than that of the compound before.
Then `CNCCN(Cc1ccccc1C(F)(F)F)C(=O)CNc1cccc2c1CCN(C(=O)OCC(C)C)C2` [compound 401], with 6.60; and `CN(C)CCN(Cc1ccccc1Cl)C(=O)CNc1cc(C(F)(F)F)cc2c1CCN(CC1CC1)C2` [Example 295, N-(2-Chloro-benzyl)-2-(2-cyclopropylmethyl-7-trifluoromethyl-1,2,3,4-tetrahydro-isoquinolin-5-ylamino)-N-(2-dimethylamino-ethyl)-acetamide], with 6.39.
`CCC(=O)N1CCc2c(cccc2NCC(=O)N(CCCN(C)C)Cc2ccccc2)C1` [Example 13, N-Benzyl-N-(3-dimethylamino-propyl)-2-(2-propionyl-1,2,3,4-tetrahydro-isoquinolin-5-ylamino)-acetamide] showed a negative-log EC50 (pEC50) of 7.43. Compared with the last compound, the pEC50 is 1.04 log units higher.
Then `CCN1CCc2cccc(NCC(=O)N(CCN(C)C)Cc3ccc(Cl)cc3)c2C1` [compound 502], with 6.95; and `CCN1Cc2cccc(NCC(=O)N(CCN(C)C)Cc3ccccc3C(F)(F)F)c2CC1=O` [Example 309, N-(2-Dimethylamino-ethyl)-2-(2-ethyl-3-oxo-1,2,3,4-tetrahydro-isoquinolin-5-ylamino)-N-(2-trifluoromethyl-benzyl)-acetamide], with 7.62; and `O=C(CNc1cccc2c1CN(CC1CC1)CC2)N(CCN1CCC(F)(F)CC1)Cc1ncccc1C(F)(F)F` [compound 476], with 7.82.
Under `CN(C)CCN(Cc1ccccc1)C(=O)Cc1cccc2c1CCN(CC1CC1)C2` [Example 1, N-Benzyl-2-(2-cyclopropylmethyl-1,2,3,4-tetrahydro-isoquinolin-5-yl)-N-(2-dimethylamino-ethyl)-acetamide] stands 7.10; under `CNCCN(Cc1ccccc1C(F)(F)F)C(=O)CNc1cccc2c1CCN(C(=O)NC(C)C)C2` [compound 404], 7.22.
Then `COCCN1CCc2c(cccc2NCC(=O)N(CCN(C)C)Cc2ncccc2C(F)(F)F)C1` [Example 371, N-(2-Dimethylamino-ethyl)-2-[2-(2-methoxy-ethyl)-1,2,3,4-tetrahydro-isoquinolin-5-ylamino]-N-(3-trifluoromethyl-pyridin-2-ylmethyl)-acetamide], with 7.80.
`CN(CCN(Cc1ncccc1C(F)(F)F)C(=O)CNc1cccc2c1CN(CC1CC1)CC2)CC(F)(F)F` [compound 477] had a pEC50 of 7.20.
Under `CN(C)CCN(Cc1ccccc1C(F)(F)F)C(=O)CN(C)c1cccc2c1CCN(CC1CC1)C2` [Example 87, 2-[(2-Cyclopropylmethyl-1,2,3,4-tetrahydro-isoquinolin-5-yl)-methyl-amino]-N-(2-dimethylamino-ethyl)-N-(2-trifluoromethyl-benzyl)-acetamide] stands 8.52.
